Publication PMC11288129, “Diversely evolved xibalbin variants from remipede venom inhibit potassium channels and activate PKA-II and Erk1/2 signaling” (BMC Biology, 2024)

What was measured:
Assay type in all cases: cell-based
[1] = system: HEK293T cells; experiment: Ca2+ influx induction, Fluo-8 calcium imaging; details: HEK293 cells
Protocol: We examined the potential of xibalbins in a concentration range of 0.25 to 25 µg/ml regarding their effects on Ca^2+ influx in HEK293 cells, which express calcium channels. […] However, exposure to none of the four xibalbin variants by itself did increase [Ca^2+]i as measured by Fluo-8 calcium imaging assay. Additionally, none of the xibalbin variants modulated forskolin-induced [Ca^2+]i increase (Additional File 7: Figure S5 A). We also evaluated the effect of xibalbins on cAMP synthesis. However, xibalbins had no effect on increasing cAMP synthesis in HEK293 cells or on preventing the forskolin-induced cAMP synthesis (Additional File 7: Figure S5 B).
Supplementary file 12915_2024_1955_MOESM7_ESM.jpg: Additional file 7: Figure S5. […] A threshold of fluorescence intensity was defined using cells before treatment, all cells above the threshold level were counted. […] For the induction assay (left panel), the luminescence was detected (background, 3 measurements every 5 min) and then the xibalbins (0.25, 2.5, 25 μg/ml) or 5 μM forskolin were added to detect the luminescence (3 measurements/5 min) using a plate reader (Spark, Tecan, Männedorf, Switzerland). For the inhibition assay (right panel), the xibalbin-treated cells were incubated with 5 μM forskolin to detect the luminescence (3 measurements/5 min). […] After 24 h NO was determined in supernatants with the Griess method. […]

[2] = system: PKA-II (phospho-RIIα/β) in rat DRG neurons; experiment: High-content imaging of PKA-II activity (pRII) in DRG sensory neurons
Protocol: (§1) To gauge sensory neuron activity in response to various activating stimuli, including electrical activity, phosphorylation state detection of protein kinase A type II (PKA-II) and MAP kinase Erk1/2 can act as surrogate measurements. Consequently, we tested for increased phosphorylation states in a concentration-dependent manner following exposure to xibalbins. Dissociated DRG neurons were cultured overnight and then exposed to increasing concentrations of the corresponding xibalbins for 5 min and 30 min, respectively. As a positive control, forskolin (Fsk) was also used to induce cAMP synthesis. The activity of PKA-II was monitored by antibodies directed against the phosphorylation site of the inhibitory regulatory subunits RIIα/β, which is exclusively accessible when the catalytic kinase domain is released during kinase activation. For measuring Erk1/2 activity, phospho-sites on Erk1/2 (T202/Y204) were monitored through immunofluorescence, as these sites are phosphorylated during activation. Cellular images were captured using HCI microscopy (Fig. 8A), and the average intensity of each phospho-antibody was quantified (Fig. 8B).
(§2) Fig. 8 A Representative images of rat DRG neurons stimulated with PBS (Ctrl) and xib1b (0.8 µg/µL). Cells were stained for UCHL1, pRII, pERK1/2, and Hoechst followed by fixation and staining with standard immunocytochemistry protocols. Green-encircled neurons indicate automatically selected objects. Scale bar: 100 µm. B Mean intensities of UCHL1, pRII, and pERK1/2. The same UCHL1 intensities were observed among tested groups. Forskolin (Fsk), an activator of adenylyl cyclase, was used as a positive control. Fsk at 6 µM concentration induced an increase in pRII and pERK1/2 intensities at 5 and 30 min. Number of analyzed cells per replica: 750 ± 200. Eight independent replicas. C–F Concentration responses of xibalbin toxins (0.005 to 0.8 µg/µL) and mean intensities of pRII and pERK1/2 at 5 min and 30 min. G–H Size versus pRII and pErk1/2 intensities of cells treated with 0.8 µg/µL of xib1 and xib13. Small-sized cells were responding to xibalbins. Statistical significance was assessed using one-way ANOVA with Dunnett’s post hoc test. Data represent mean ± S.E.M (standard error of the mean), n = 4, see “Methods” for details and Additional File 6: Table S2 for individual data values
(§3) Male Sprague Dawley rats (250–400 g, 8–16 weeks old) were obtained from Envigo. Rats were kept in 12 h of light/darkness cycles. All experiments were performed in accordance with the German animal welfare law with permission of the District Government for Nature and Environment, NRW (84–02.05.20.13.045, 4.18.003). Rats were scarified by slow inhalation of CO2 which was followed by decapitation. DRGs were extracted from rats, deheated, pooled, and incubated in Neurobasal A/B27 medium (Invitrogen, #12349–015) supplemented with B-27 (Invitrogen #17504), L-glutamine 1:400, L-glutamate 1:270.3, and penicillin/streptomycin 1:100 containing 0.2 U/mL collagenase P (collagenase P, Roche, #1213857) and incubated for 1 h at 37 °C, 5% CO2. DRGs were dissociated with pasteur pipettes and axon stumps were separated by BSA (Sigma-Aldrich, # A2153-100G) gradient centrifugation (14% BSA, 120 g, 8 min). Cells were resuspended in NBA medium, plated in 96-well imaging plate (Greiner BioOne Sensoplate, Black, #655896) precoated with poly-L-ornithine hydrochloride (0.1 mg/ml Sigma, #P2533)/laminin (5 µg/ml Invitrogen, #23017–015), and incubated overnight at 37 °C, 5% CO2.
(§4) DRGs were stimulated after overnight incubation. Compounds were prepared as tenfold concentrated stock solutions, diluted in PBS (PAA, cat# H15-002), in v-bottom plates; 50 µL media from culture wells were mixed with the […] stock solutions, and 50 µL added back to the respective wells. Stimulation was performed with automated multichannel pipette and cells were kept in heated block during the stimulation. […]

[3] = system: Erk1/2 (T202/Y204) in rat DRG neurons; experiment: High-content imaging of pERK1/2 in DRG sensory neurons; details: positive control Fsk 6 µM; 5 and 30 min
Protocol: as §1, §2, §3, §4

With `C=C[C@@]1(C)CC(=O)[C@]2(O)[C@@]3(C)[C@@H](O)CCC(C)(C)[C@@H]3[C@H](O)[C@H](OC(C)=O)[C@@]2(C)O1` [Forskolin, reference compound] the “increase of [Ca2+]i by positive control” value [1] was “increased [Ca^2+]i”, the “pRII intensity” value ([2]; positive control Fsk 6 µM, 5 and 30 min) was “increase” and the “pRII response by neuron size” value ([2]; xibalbins 0.8 µg/µL) was “activated both small and large-sized sensory neurons”. For the same compound, the “pERK1/2 intensity” value [3] was “increase”.
